In article PMC5394417, “Investigating the molecular mechanism of positive and negative allosteric modulators in the calcium-sensing receptor dimer” (Scientific Reports, 2017):

Columns and labels:
Assay type in all cases: cell-based
HA-CaSR WT + myc CaSR-WT = target: T1, HA-CaSR WT + myc CaSR-WT (Rattus norvegicus, UniProt P48442); experiment: IP-One assay, co-expression 1:1 in HEK293T
T1 construct: mGluR5 signal peptide (N); expressed in transfected cells; host or cells: HEK293T
T1 sequence (P48442 20-1079) 1: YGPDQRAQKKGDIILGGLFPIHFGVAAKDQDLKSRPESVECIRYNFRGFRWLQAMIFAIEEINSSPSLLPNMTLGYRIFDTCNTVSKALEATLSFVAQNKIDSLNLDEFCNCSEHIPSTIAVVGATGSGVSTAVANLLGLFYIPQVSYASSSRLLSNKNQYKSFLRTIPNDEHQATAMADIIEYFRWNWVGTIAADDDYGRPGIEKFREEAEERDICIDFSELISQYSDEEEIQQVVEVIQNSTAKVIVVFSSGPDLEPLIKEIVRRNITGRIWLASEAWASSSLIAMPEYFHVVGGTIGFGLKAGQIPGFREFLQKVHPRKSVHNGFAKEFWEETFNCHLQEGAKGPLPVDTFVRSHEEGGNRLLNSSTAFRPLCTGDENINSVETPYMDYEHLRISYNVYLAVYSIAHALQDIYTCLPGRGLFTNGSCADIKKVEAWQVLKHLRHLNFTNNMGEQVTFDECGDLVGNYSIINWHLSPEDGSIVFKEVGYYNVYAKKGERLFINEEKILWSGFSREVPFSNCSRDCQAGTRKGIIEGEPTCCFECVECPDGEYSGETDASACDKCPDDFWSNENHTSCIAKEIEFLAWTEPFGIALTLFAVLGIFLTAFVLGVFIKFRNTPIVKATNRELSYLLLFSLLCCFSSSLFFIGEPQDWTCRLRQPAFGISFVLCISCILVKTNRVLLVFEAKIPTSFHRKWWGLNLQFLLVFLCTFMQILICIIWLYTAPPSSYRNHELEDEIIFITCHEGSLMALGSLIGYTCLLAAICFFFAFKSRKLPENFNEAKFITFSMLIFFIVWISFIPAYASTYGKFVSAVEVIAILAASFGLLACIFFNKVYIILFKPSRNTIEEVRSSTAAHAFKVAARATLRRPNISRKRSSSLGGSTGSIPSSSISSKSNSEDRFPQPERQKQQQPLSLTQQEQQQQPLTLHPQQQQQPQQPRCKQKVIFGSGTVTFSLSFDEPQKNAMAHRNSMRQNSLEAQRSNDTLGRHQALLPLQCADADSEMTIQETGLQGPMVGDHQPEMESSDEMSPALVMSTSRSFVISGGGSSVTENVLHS
T1 sequence (P48442 20-1079) 2: T1 sequence (P48442 20-1079) 1
Description: (§1) Human embryonic kidney (HEK) 293T cells were cultured in DMEM supplemented with 10% dFBS and 1% P/S at 37 °C and 5% CO2. 48 h prior to assay, transient transfection was performed using Lipofectamine 2000 as the transfection reagent. White opaque 96-well culture plates (PerkinElmer, Waltham, MA, USA) were used for the ELISA and the TR-FRET dimerization assay, while clear tissue culture treated 96-well plates (Corning, Corning, NY, USA) were used for the IP-One assay. Both plate types were coated with poly-D-lysine before addition of cells and transfection mix. 0.25 μl/well of Lipofectamine 2000 were diluted in 25 μl/well of Opti-MEM and incubated at room temperature (RT) for 5 min. 0.03 μg/well of DNA was diluted in 25 μl/well of Opti-MEM, and subsequently mixed with the Lipofectamine 2000 dilution and incubated 20 min at RT before addition to the plates. Cell suspensions of 170.000 HEK293T cells/mL were prepared in complete growth medium and 100 μl/well (17.000 cells/well) was added to the plates, which were incubated for 48 h at 37 °C and 5% CO2 before performing assays.
Functional activity was measured using the IP-One assay, which is an IP1 accumulation assay. For agonist testing, ligands were prepared in final concentrations in ligand buffer (HBSS, 20 mM HEPES, pH 7.4 supplemented with 20 mM LiCl). Cells were washed once with 100 μl/well of assay buffer (HBSS, 20 mM HEPES, pH 7.4) and 50 μl/well of agonist solution was added after which plates were incubated at 37 °C for 30 min. Subsequently, ligand solutions were removed and cells were washed with 100 μl/well of assay buffer. Cell lysis was performed by addition of 30 μl/well of IP-One Conjugate & Lysis Buffer (Cisbio Bioassays, Codolet, France) and plates were incubated at RT for 30 min. Afterwards, 30 μl/well of assay buffer was added to dilute the cell lysate. 10 μl/well of cell lysate was transferred from the 96-well plate to a 384-well Optiplate and 10 μl/well of detection solution (Assay buffer + 2.5% of anti-IP1 antibody cryptate Terbium conjugate + 2.5% IP1-d2 conjugate (Cisbio Bioassays, Codolet, France)) was also added. The 384-well plate was incubated for 1 h at RT in dark before being measured on an EnVision plate reader (PerkinElmer, Waltham, MA, USA). Upon excitation at 340 nm, emission at 615 nm and 665 nm was measured, and the FRET ratio (665 nm/615 nm) was converted to IP1 concentrations by interpolating values from an IP1 standard curve generated from a provided IP1 calibrator (Cisbio Bioassays, Codolet, France). When testing allosteric modulators, cells were pre-incubated for 30 min at 37 °C with 50 μl/well of ligand buffer supplemented with allosteric modulator and a final concentration of 1% DMSO. […]

[1] = target: T2, HA-F801A CaSR mutant (ICL3 mutant) (Rattus norvegicus, UniProt P48442, F801A); experiment: IP-One assay, HEK293T transiently transfected
T2 construct: mGluR5 signal peptide (N); expressed in transfected cells; host or cells: HEK293T
Description: as §1
(§2) Functional activity was measured using the IP-One assay, which is an IP1 accumulation assay. For agonist testing, ligands were prepared in final concentrations in ligand buffer (HBSS, 20 mM HEPES, pH 7.4 supplemented with 20 mM LiCl). Cells were washed once with 100 μl/well of assay buffer (HBSS, 20 mM HEPES, pH 7.4) and 50 μl/well of agonist solution was added after which plates were incubated at 37 °C for 30 min. Subsequently, ligand solutions were removed and cells were washed with 100 μl/well of assay buffer. Cell lysis was performed by addition of 30 μl/well of IP-One Conjugate & Lysis Buffer (Cisbio Bioassays, Codolet, France) and plates were incubated at RT for 30 min. Afterwards, 30 μl/well of assay buffer was added to dilute the cell lysate. 10 μl/well of cell lysate was transferred from the 96-well plate to a 384-well Optiplate and 10 μl/well of detection solution (Assay buffer + 2.5% of anti-IP1 antibody cryptate Terbium conjugate + 2.5% IP1-d2 conjugate (Cisbio Bioassays, Codolet, France)) was also added. The 384-well plate was incubated for 1 h at RT in dark before being measured on an EnVision plate reader (PerkinElmer, Waltham, MA, USA). Upon excitation at 340 nm, emission at 615 nm and 665 nm was measured, and the FRET ratio (665 nm/615 nm) was converted to IP1 concentrations by interpolating values from an IP1 standard curve generated from a provided IP1 calibrator (Cisbio Bioassays, Codolet, France). When testing allosteric modulators, cells were pre-incubated for 30 min at 37 °C with 50 μl/well of ligand buffer supplemented with allosteric modulator and a final concentration of 1% DMSO. Afterwards, the buffer solution was removed and 50 μl/well of agonist solution in ligand buffer supplemented with allosteric modulator and a final concentration of 1% DMSO was added. Plates were incubated for 30 min at 37 °C followed by one wash in 100 μl/well of assay buffer. Cell lysis and detection was performed as described above.

HA-CaSR WT = target: T3, HA-CaSR WT (Rattus norvegicus, UniProt P48442); experiment: IP-One assay (IP1 accumulation, Gq signaling), HEK293T transiently transfected
T3 construct: mGluR5 signal peptide (N); expressed in transfected cells; host or cells: HEK293T
T3 sequence (P48442 20-1079): T1 sequence (P48442 20-1079) 1
Description: as §1, §2

[2] = normalized to maximum response of WT CaSR

T2 sequence (P48442 20-1079 F801A): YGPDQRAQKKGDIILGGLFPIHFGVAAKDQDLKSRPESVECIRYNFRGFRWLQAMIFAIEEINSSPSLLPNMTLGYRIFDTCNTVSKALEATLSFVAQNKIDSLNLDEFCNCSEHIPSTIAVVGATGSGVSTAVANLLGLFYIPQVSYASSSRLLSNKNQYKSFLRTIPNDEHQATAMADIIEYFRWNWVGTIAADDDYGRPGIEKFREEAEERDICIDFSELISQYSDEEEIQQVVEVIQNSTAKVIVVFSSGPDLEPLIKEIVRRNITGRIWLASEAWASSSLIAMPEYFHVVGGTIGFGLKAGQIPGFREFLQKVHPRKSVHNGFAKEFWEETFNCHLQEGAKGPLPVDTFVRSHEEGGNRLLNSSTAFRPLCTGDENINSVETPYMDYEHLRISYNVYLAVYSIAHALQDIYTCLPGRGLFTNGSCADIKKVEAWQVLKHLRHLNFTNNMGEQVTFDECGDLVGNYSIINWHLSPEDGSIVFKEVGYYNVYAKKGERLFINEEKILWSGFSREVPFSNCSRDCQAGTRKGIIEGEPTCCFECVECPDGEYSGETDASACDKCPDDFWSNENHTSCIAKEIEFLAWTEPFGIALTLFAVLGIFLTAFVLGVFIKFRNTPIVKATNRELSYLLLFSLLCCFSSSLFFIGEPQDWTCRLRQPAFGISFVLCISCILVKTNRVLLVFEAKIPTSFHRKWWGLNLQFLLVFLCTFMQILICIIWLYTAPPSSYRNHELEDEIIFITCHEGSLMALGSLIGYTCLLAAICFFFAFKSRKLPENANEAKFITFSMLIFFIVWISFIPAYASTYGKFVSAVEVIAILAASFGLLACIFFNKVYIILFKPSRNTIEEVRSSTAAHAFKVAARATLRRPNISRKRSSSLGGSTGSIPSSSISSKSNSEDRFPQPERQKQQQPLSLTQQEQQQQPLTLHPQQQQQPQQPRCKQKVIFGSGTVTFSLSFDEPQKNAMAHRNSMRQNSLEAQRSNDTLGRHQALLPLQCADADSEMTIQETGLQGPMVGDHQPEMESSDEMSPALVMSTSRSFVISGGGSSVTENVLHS

[Ca+2] [Ca^2+]
EC50 (HA-CaSR WT + myc CaSR-WT; Ca^2+ alone): 2.98 mM
Hill coefficient ± S.E.M. (HA-CaSR WT + myc CaSR-WT; Ca^2+ alone): 4.24 ± 0.19
pEC50 ± S.E.M. (HA-CaSR WT + myc CaSR-WT; Ca^2+ alone): 2.53 ± 0.02
Max ± S.E.M. (HA-CaSR WT + myc CaSR-WT; [2]): 100%
EC50 ([1]; Ca^2+ alone): > 30 mM
Max ± S.E.M. [1, 2]: 5.8 ± 0.4%
EC50 (HA-CaSR WT; Ca^2+ alone, Table 1): 3.77 mM
Hill coefficient ± S.E.M. (HA-CaSR WT; Ca^2+ alone, Table 1): 3.62 ± 0.48
pEC50 ± S.E.M. (HA-CaSR WT; Ca^2+ alone, Table 1): 2.42 ± 0.01
EC50 (HA-CaSR WT; Ca^2+ alone, Table 3): 3.21 mM
pEC50 ± S.E.M. (HA-CaSR WT; Ca^2+ alone, Table 3): 2.49 ± 0.01
Max ± S.E.M. (HA-CaSR WT; Ca^2+ alone, normalized to maximum response of WT CaSR, Table 3): ≈100%
EC50 (HA-CaSR WT; Ca^2+ with 1 μM NPS R-568): 1.28 mM
pEC50 ± S.E.M. (HA-CaSR WT; Ca^2+ with 1 μM NPS R-568): 2.89 ± 0.01
Max ± S.E.M. (HA-CaSR WT; Ca^2+ with 1 μM NPS R-568, normalized to maximum response with Ca^2+ alone for the construct): 110 ± 11%
EC50 (HA-CaSR WT; Ca^2+ with 5 μM NPS 2143): 8.4 mM
pEC50 ± S.E.M. (HA-CaSR WT; Ca^2+ with 5 μM NPS 2143): 2.08 ± 0.01
Max ± S.E.M. (HA-CaSR WT; Ca^2+ with 5 μM NPS 2143, normalized to maximum response with Ca^2+ alone for the construct): 72 ± 5.6%
Max ± S.E.M. (HA-CaSR WT; normalized to maximum response of WT CaSR, Table 1): 100%
